{"source": "paper PMC3610344", "about": "“Differential Cytotoxicity Responses by Dog and Rat Hepatocytes to Phospholipogenic Treatments” (Journal of Toxicology, 2013)", "key": {"splenocyte": {"test_system": "splenocyte", "parameters": "method as in PMID 16463016", "conditions": "in vitro, tested independently; cited from earlier work"}, "rat hepatocytes [1]": {"test_system": "rat hepatocytes", "assay": "cells", "format": "cell-based", "conditions": "for IC50: 24 h treatment, read-out: Survival IC50; for % survival: average ± std dev"}, "dog hepatocytes [2]": {"test_system": "dog hepatocytes", "assay": "Cell survival of primary dog hepatocytes (Cellomics Arrayscan)", "format": "cell-based", "conditions": "for IC50: 24 h treatment", "from_the_text": "(§1) Primary rat hepatocytes were freshly isolated from Han Wistar rats at AstraZeneca, using the collagenase perfusion method (Selgen, PO, 1976). Primary dog hepatocytes were isolated at AstraZeneca, or purchased from CellzDirect Corp. (Durham, NC), which also uses a collagenase perfusion method. Cells were centrifuged and resuspended in hepatocyte culture media, consisting of Williams E basal media (Sigma-Aldrich, Inc., St. Louis, MO) 5% Hyclone fetal bovine serum (ThermoFisher Scientific Inc., Rockford, IL), 15 mM HEPES (Mediatech Inc., Manassas, VA), 100 units/mL penicillin/streptomycin, 200 μM l-glutamine, 1X ITS (insulin, transferrin, selenium solution from Mediatech Inc.), and 30 nM dexamethasone (Sigma-Aldrich). Cells were suspended at 2.5 × 10^5 cell/mL and added to BD Biocoat collagen I coated microtiter plates at 100 μL/well, for a final count of 25,000 cells/well. Selection criterion for use of initial isolates was 85% minimal viability. Cells were incubated at 37°C in a CO2 incubator for 4 h to allow for cell attachment. Media was aspirated and replaced with hepatocyte culture media without fetal bovine serum and supplemented with 150 μg/mL Matrigel collagen matrix (BD Inc.). Cells were incubated in a CO2 incubator for 24 h, the media was replaced with hepatocyte culture media, and the cells were incubated for an additional 24 h. Compounds were solubilized in DMSO, water, or ethanol to 1000X stock and then diluted to 1X in media. All conditions contained equal concentrations of vehicle.\n(§2) In a modification of the procedure described by Morelli et al., hepatocytes were treated with drugs diluted into culture media containing 12 μg/mL NBD-PE (N-(7-nitrobenz-2-oxa-1,3-diazol-4-yl)-1,2-dihexadecanoyl-sn-glycero-3-phosphoethanolamine, triethylammonium salt) for 24 hours. At the end of the treatment period, Sytox orange (100 nM Invitrogen Inc.) was added to cells for 20 minutes prior to fixation. This fluorescent dye stains only cells with compromised cell membranes thereby enabling their exclusion from NBD-PE cell quantitation by the Cellomics ArrayScan instrument. Media were aspirated, cells were washed with 1X PBS and fixed by the addition of 100 μL PBS containing 3.7% formaldehyde, and 1 μg/mL Hoechst dye. Fixation was allowed to proceed for 30 min at RT, and cells were washed three times with 1X PBS, and sealed for imaging. Labeled cells were analyzed using the Cellomics Arrayscan instrument (Cellomics Inc., Pittsburgh, PA) with version 3.5 equipment and software. The ArrayScan captures fluorescent images in the 3 channels relevant to this assay (Hoechst, TRITC for Sytox staining and FITC for NBD-PE staining) and performs automated image analysis to quantify cell nuclei, the number of dead cells, and NBD-PE dye fluorescent intensity. The analysis algorithms that enable cell versus well-based detection were purchased from Cellomics Inc. and are referred to as Cell Health Profiling (CHP) and Target Activation (TA) algorithms. […] NBD-PE peak signal was defined as the maximal response."}, "dog hepatocytes [3]": {"test_system": "dog hepatocytes", "assay": "NBD-PE accumulation assay in dog hepatocytes", "format": "cell-based", "conditions": "for NBD-PE accumulation, control activity: 300 μM, 24 h, N = 1", "from_the_text": "as §1, with “Cells were incubated in a CO2 incubator for 24 h, the media was replaced with hepatocyte culture media, and the cells were incubated for an additional 24 h. Compounds were solubilized in DMSO, water, or ethanol to 1000X stock and then diluted to 1X in media. All conditions contained equal concentrations of vehicle.” left out\nIn a modification of the procedure described by Morelli et al., hepatocytes were treated with drugs diluted into culture media containing 12 μg/mL NBD-PE (N-(7-nitrobenz-2-oxa-1,3-diazol-4-yl)-1,2-dihexadecanoyl-sn-glycero-3-phosphoethanolamine, triethylammonium salt) for 24 hours. […] This fluorescent dye stains only cells with compromised cell membranes thereby enabling their exclusion from NBD-PE cell quantitation by the Cellomics ArrayScan instrument. […] Labeled cells were analyzed using the Cellomics Arrayscan instrument (Cellomics Inc., Pittsburgh, PA) with version 3.5 equipment and software. The ArrayScan captures fluorescent images in the 3 channels relevant to this assay (Hoechst, TRITC for Sytox staining and FITC for NBD-PE staining) and performs automated image analysis to quantify cell nuclei, the number of dead cells, and NBD-PE dye fluorescent intensity. […]"}, "rat hepatocytes [4]": {"test_system": "rat hepatocytes", "assay": "NBD-PE accumulation assay in rat hepatocytes", "format": "cell-based, Han Wistar rats", "conditions": "for NBD-PE accumulation, control activity: 300 μM, N = 1", "from_the_text": "as §1, §2"}, "[5]": {"test_system": "isolated rat mitochondria", "parameters": "method as in PMID 17917797", "conditions": "cited from earlier work"}, "rat liver": {"test_system": "rat liver", "assay": "Preclinical in vivo toxicology studies in rat"}, "dog liver": {"test_system": "dog liver", "assay": "Preclinical in vivo toxicology studies in dog"}, "rat hepatocytes [6]": {"test_system": "rat hepatocytes", "assay": "Mitochondrial membrane potential (JC-1 fluorescence) in rat hepatocytes", "format": "cell-based, Han Wistar rats", "from_the_text": "as §1\nJC-1 was added to cell cultures at a concentration of 5 μg/mL for 30 minutes to allow for cellular accumulation. Media were then aspirated and replaced with fresh media containing drugs of interest without JC-1. Fluorescence was detected using a spectrofluorometer. The ratio of red to green signals was calculated and converted to % control for graphing and analysis."}, "rat hepatocytes [7]": {"test_system": "rat hepatocytes", "assay": "Acridine orange lysosomal staining time course in rat hepatocytes", "format": "cell-based, Han Wistar rats"}, "[8]": {"conditions": "Rattus norvegicus, Hepatocyte, 24 h"}, "[9]": {"conditions": "Canis lupus familiaris, Hepatocyte, 24 h"}, "[10]": {"conditions": "1-month toxicology study, comparable plasma exposures, unpublished observations"}, "[11]": {"conditions": "preclinical toxicology studies (1-month for compound A), unpublished observations / data not shown"}}, "note": "Where two headings read alike, the source gives them in different places."}
{"smiles": "COc1cc2c(c(N3CCN(C)CC3)c1)O[C@@H](C(=O)Nc1ccc(N3CCOCC3)c(F)c1)CC2", "note": "[B]", "values": [{"measurement": "Phospholipogenic response in splenocyte model", "setting": "splenocyte", "value": "phospholipogenic"}, {"measurement": "IC50", "setting": "rat hepatocytes [1]; [8]", "value": "> 300", "unit": "µM"}, {"measurement": "IC50", "setting": "dog hepatocytes [2]; [9]", "value": "153 ± 63", "unit": "µM"}]}
{"smiles": "Nc1ccc(N2CCOCC2)cc1", "note": "[compound D]", "values": [{"measurement": "NBD-PE accumulation, control activity", "setting": "dog hepatocytes [3]", "value": 140, "unit": "%"}, {"measurement": "Phospholipogenic response in splenocyte model", "setting": "splenocyte", "value": "negative"}, {"measurement": "NBD-PE accumulation, control activity", "setting": "rat hepatocytes [4]; 24 h", "value": 101, "unit": "%"}, {"measurement": "IC50", "setting": "rat hepatocytes [1]; [8]", "value": "> 300", "unit": "µM"}, {"measurement": "IC50", "setting": "dog hepatocytes [2]; [9]", "value": "> 300", "unit": "µM"}]}
{"smiles": "CO/C1=C\\C(C)=C\\[C@@H](C)[C@@H](O)[C@@H](C)C/C(C)=C/C=C/[C@H](OC)[C@@H]([C@@H](C)[C@@H](O)[C@H](C)[C@@]2(O)C[C@@H](O)[C@H](C)[C@@H](C(C)C)O2)OC1=O", "note": "[Baf, Bafilomycin A1, reference compound]", "values": [{"measurement": "Increase in control NBD-PE fluorescent staining", "setting": "dog hepatocytes [3]; 100 nM Baf", "value": 2, "unit": "fold"}, {"measurement": "Minimal concentration affecting mitochondrial functions (potassium uptake, swelling, loss of membrane potential, uncoupling)", "setting": "[5]", "value": 50, "unit": "nM"}, {"measurement": "Increase in control NBD-PE fluorescent staining", "setting": "rat hepatocytes [4]; 100 nM Baf", "value": 2, "unit": "fold"}]}
{"smiles": "O=C(O)Cc1ccccc1Nc1c(Cl)cccc1Cl", "note": "[Diclofenac, reference compound]", "values": [{"measurement": "Phospholipogenic response in splenocyte model", "setting": "splenocyte", "value": "negative"}, {"measurement": "IC50", "setting": "rat hepatocytes [1]; [8]", "value": 832, "unit": "µM"}, {"measurement": "IC50", "setting": "dog hepatocytes [2]; [9]", "value": 656, "unit": "µM"}]}
{"smiles": "COc1cc2c(c(N3CCN(C)CC3)c1)O[C@@H](C(=O)Nc1ccc(N3CCOCC3)cc1)CC2", "note": "[compound A]", "values": [{"measurement": "Centrilobular necrosis of liver", "setting": "rat liver; [10]", "value": "only dog had concomitant centrilobular necrosis"}, {"measurement": "Centrilobular necrosis of liver", "setting": "dog liver; [10]", "value": "only dog had concomitant centrilobular necrosis"}, {"measurement": "IC50", "setting": "rat hepatocytes [1]; Hepatocyte", "value": "> 450", "unit": "µM"}, {"measurement": "IC50", "setting": "dog hepatocytes [2]; Canis lupus familiaris, Hepatocyte", "value": "298 ± 22", "unit": "µM"}]}
{"smiles": "CCCc1cccc2c(N)c(C(=O)NCC3CC3)nnc12", "note": "[compound C]", "values": [{"measurement": "NBD-PE accumulation, control activity", "setting": "dog hepatocytes [3]", "value": 121, "unit": "%"}, {"measurement": "Phospholipogenic response in splenocyte model", "setting": "splenocyte", "value": "negative"}, {"measurement": "NBD-PE accumulation, control activity", "setting": "rat hepatocytes [4]; 24 h", "value": 95, "unit": "%"}, {"measurement": "IC50", "setting": "rat hepatocytes [1]; [8]", "value": "> 300", "unit": "µM"}, {"measurement": "IC50", "setting": "dog hepatocytes [2]; [9]", "value": "> 300", "unit": "µM"}]}
{"smiles": "Cc1ccc(N2CCN(C)CC2)c2c1CC[C@@H](NC(=O)c1ccc(N3CCOCC3)cc1)C2", "note": "[NMTMB, N-[(2R)-5-methyl-8-(4-methylpiperazin-1-yl)tetralin-2-yl]-4-morpholino-benzamide]", "values": [{"measurement": "Time to maximum hyperpolarization", "setting": "rat hepatocytes [6]; 100 μM", "value": "≤ 2", "unit": "h"}, {"measurement": "Time to mitochondria hyperpolarization", "setting": "rat hepatocytes [6]; 100 μM", "value": "≤ 1", "unit": "h"}, {"measurement": "Mitochondrial polarization status", "setting": "rat hepatocytes [6]; 300 μM", "value": "mitochondria depolarization was observed within the first hour"}, {"measurement": "Mitochondrial polarization status with Baf cotreatment", "setting": "rat hepatocytes [6]; 300 μM NMTMB plus 30 nM Baf, by 1 h", "value": "marked shift from mitochondrial depolarization to a hyperpolarized state"}, {"measurement": "AO spot count", "setting": "rat hepatocytes [7]; 100 μM, up to 8 h", "value": "maintained or exceeded control levels"}, {"measurement": "AO spot count", "setting": "rat hepatocytes [7]; 300 μM, by 4 h", "value": "~0", "unit": "%"}, {"measurement": "Decline of AO spot count compared to control", "setting": "rat hepatocytes [7]; 300 μM, within 30 minutes", "value": "~50", "unit": "%"}, {"measurement": "Phospholipidosis (PLD) in vivo", "setting": "rat liver; [11]", "value": "confirmed multiorgan in vivo phospholipogenics"}, {"measurement": "NBD-PE accumulation", "setting": "rat hepatocytes [4]; 50 μM, 24 h", "value": 4, "unit": "fold vehicle control"}, {"measurement": "EC50", "setting": "rat hepatocytes [4]; Hepatocyte, approximate, estimated from left-hand portion of bell-shaped curve", "value": "~65", "unit": "µM"}, {"measurement": "Phospholipidosis (PLD) in vivo", "setting": "dog liver; [11]", "value": "confirmed multiorgan in vivo phospholipogenics"}, {"measurement": "Drop in cell survival", "setting": "rat hepatocytes [1]; 100 μM, 8 h treatment", "value": 40, "unit": "%"}, {"measurement": "Hepatocytes surviving", "setting": "rat hepatocytes [1]; 100 μM, 24 hr", "value": "~ 80%"}, {"measurement": "% survival", "setting": "rat hepatocytes [1]; 300 μM NMTMB alone", "value": "9.3 ± 4", "unit": "%"}, {"measurement": "% survival", "setting": "rat hepatocytes [1]; 300 μM NMTMB cotreated with PADK", "value": "51 ± 8.5", "unit": "%"}, {"measurement": "Survival compared to control", "setting": "rat hepatocytes [1]; 300 μM, 2 h", "value": 20, "unit": "%"}, {"measurement": "Cell death", "setting": "rat hepatocytes [1]; 300 μM, 4 h", "value": "cell death was complete"}, {"measurement": "IC50", "setting": "rat hepatocytes [1]", "value": "148 ± 41", "unit": "µM"}, {"measurement": "IC50", "setting": "rat hepatocytes [1]; [8]", "value": 159, "unit": "µM"}, {"measurement": "Cells dead", "setting": "dog hepatocytes [2]; 50 μM, 24 h", "value": "~ 70%"}, {"measurement": "Cell death", "setting": "dog hepatocytes [2]; 100 μM, 24 hr", "value": "complete cell death"}, {"measurement": "IC50", "setting": "dog hepatocytes [2]; [9]", "value": "37 ± 13", "unit": "µM"}]}
{"smiles": "CCN(CCO)CCCC(C)Nc1ccnc2cc(Cl)ccc12", "note": "(centres unmarked) [Hydroxychloroquine, reference compound]", "values": [{"measurement": "IC50", "setting": "rat hepatocytes [1]", "value": "> 300", "unit": "µM"}, {"measurement": "IC50", "setting": "rat hepatocytes [1]; [8]", "value": 220, "unit": "µM"}, {"measurement": "Change in survival", "setting": "rat hepatocytes [1]; control condition without Baf, 24 h", "value": "25–35%"}, {"measurement": "IC50", "setting": "dog hepatocytes [2]", "value": 159, "unit": "µM"}, {"measurement": "IC50", "setting": "dog hepatocytes [2]; [9]", "value": 90, "unit": "µM"}]}
